Experimental data: ChEMBL document CHEMBL4000170 (Eur J Med Chem, 2017)
Activity calls are given as the source filed them. The calls are words filed in the database; no cut-off is given here.

Tests used:
[1] = tested on: DU-145; experiment: Antiproliferative activity against AR negative human DU145 cells after 3 days by MTT assay; type: functional, cell-based; conditions: DU-145, 72 h
[2] = target: T1, Androgen receptor (Homo sapiens) (UniProt P10275); conditions: at 10 µM
T1 sequence (whole entry): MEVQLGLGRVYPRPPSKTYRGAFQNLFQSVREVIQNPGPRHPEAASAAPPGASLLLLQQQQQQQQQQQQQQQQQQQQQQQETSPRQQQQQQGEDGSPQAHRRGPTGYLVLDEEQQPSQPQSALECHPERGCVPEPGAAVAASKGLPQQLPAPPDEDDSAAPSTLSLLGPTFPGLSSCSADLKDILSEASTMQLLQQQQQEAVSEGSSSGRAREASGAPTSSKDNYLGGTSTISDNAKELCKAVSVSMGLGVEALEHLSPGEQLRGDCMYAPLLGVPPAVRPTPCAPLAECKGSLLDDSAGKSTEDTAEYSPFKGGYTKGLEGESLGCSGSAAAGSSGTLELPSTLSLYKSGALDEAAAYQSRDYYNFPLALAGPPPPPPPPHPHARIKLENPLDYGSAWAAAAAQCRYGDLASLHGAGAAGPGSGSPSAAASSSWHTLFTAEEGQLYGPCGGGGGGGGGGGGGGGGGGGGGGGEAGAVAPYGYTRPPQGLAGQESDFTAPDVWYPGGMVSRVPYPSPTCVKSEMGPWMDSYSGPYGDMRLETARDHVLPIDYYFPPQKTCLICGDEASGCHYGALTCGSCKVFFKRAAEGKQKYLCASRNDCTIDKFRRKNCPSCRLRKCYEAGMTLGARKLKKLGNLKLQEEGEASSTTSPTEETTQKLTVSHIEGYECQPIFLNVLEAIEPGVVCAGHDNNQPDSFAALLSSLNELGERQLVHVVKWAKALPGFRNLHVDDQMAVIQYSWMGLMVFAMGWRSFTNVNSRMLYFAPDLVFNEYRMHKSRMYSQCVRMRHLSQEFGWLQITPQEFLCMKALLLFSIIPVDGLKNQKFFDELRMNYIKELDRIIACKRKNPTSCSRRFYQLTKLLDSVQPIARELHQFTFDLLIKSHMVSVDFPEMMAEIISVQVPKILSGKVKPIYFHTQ
Description: Antagonist activity at androgen receptor (unknown origin) expressed in COS-7 cells assessed as inhibition of R1881-induced MMTV promoter activity at 10 uM by luciferase reporter gene assay relative to control

[3] = Antiproliferative activity against human LNCaP-hr cells expressing AR T877A mutant after 3 days by MTT assay; type: functional, cell-based; conditions: 72 h
[4] = Displacement of Fluormone-AL green from rat GST/His-tagged AR LBD mutant after 4 hrs by Fluorescence polarization assay
[5] = tested on: Androgen receptor (Homo sapiens), P10275 [T878A]; conditions: at 10 µM
Androgen receptor (Homo sapiens), P10275 [T878A], sequence (P10275 whole entry T878A): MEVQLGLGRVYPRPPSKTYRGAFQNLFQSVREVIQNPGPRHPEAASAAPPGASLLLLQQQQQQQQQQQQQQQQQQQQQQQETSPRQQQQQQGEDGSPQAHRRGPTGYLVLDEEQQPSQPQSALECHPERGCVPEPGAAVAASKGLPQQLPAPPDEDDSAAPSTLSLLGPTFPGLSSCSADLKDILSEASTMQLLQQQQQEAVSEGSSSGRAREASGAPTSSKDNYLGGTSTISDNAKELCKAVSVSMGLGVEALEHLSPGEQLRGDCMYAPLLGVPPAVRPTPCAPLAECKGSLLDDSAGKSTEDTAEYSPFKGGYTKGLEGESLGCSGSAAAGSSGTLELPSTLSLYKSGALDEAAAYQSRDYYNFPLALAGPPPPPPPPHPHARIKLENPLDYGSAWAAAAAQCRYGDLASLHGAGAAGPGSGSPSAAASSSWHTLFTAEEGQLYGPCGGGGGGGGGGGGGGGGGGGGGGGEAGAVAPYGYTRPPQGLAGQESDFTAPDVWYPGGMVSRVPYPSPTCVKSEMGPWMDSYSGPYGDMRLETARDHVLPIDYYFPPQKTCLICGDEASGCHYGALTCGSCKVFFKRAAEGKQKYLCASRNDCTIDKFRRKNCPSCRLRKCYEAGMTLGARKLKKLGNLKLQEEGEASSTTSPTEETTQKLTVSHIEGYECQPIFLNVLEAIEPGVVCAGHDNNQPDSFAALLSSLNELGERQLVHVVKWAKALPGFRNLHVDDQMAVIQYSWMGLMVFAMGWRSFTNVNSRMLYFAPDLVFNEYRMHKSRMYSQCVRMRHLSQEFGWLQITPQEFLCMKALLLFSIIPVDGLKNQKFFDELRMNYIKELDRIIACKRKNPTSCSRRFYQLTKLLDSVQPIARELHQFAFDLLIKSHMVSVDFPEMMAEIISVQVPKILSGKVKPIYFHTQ
Description: Inhibition of R1881-induced AR T877A mutant nuclear translocation in human LNCAP cells assessed as reduction in ratio of nuclear to cytoplasmic AR levels at 10 uM after 12 hrs by DAPI-staining based fluorescent microscopy

| SMILES | IC50 [1] [µM] | inhibition [2] | IC50 [3] [µM] | IC50 [4] [µM] | inhibition [5] |
| --- | --- | --- | --- | --- | --- |
| N#Cc1ccc(N2C(=O)C3CCCN3C2=S)cc1C(F)(F)F (configuration not stated) | > 200 | 32% | 87.7 | – | – |
| CC(O)CNC(=O)c1ccc2c(c1)N1C(=S)N(c3ccc(C#N)c(C(F)(F)F)c3)C(=O)C1C2 (configuration not stated) | > 200 | 39.3% | 48.4 | – | – |
| N#Cc1ccc(N2C(=O)C3Cc4ccc(I)cc4N3C2=S)cc1C(F)(F)F (configuration not stated) | 190 | 58.4% | 71.9 | – | – |
| N#Cc1ccc(N2C(=O)C3Cc4cc(Cl)ccc4N3C2=S)cc1C(F)(F)F (configuration not stated) | 160 | 6.7% | 46 | – | – |
| CNC(=O)c1ccc(N2C(=S)N(c3ccc(C#N)c(C(F)(F)F)c3)C(=O)C2(C)C)cc1F [ENZALUTAMIDE] | – | – | 12.5 | 1.35 | – |
| CCCNC(=O)c1ccc2c(c1)N1C(=S)N(c3ccc(C#N)c(C(F)(F)F)c3)C(=O)C1C2 (configuration not stated) | 114 | inactive | 90.8 | – | – |
| CCNC(=O)c1ccc2c(c1)N1C(=S)N(c3ccc(C#N)c(C(F)(F)F)c3)C(=O)C1C2 (configuration not stated) | 105 | 2.1% | 35.3 | – | – |
| N#Cc1ccc(N2C(=O)C3Cc4cc(N)ccc4N3C2=S)cc1C(F)(F)F (configuration not stated) | > 200 | 23.4% | 99.1 | – | – |
| N#Cc1ccc(N2C(=O)C3Cc4ccc([N+](=O)[O-])cc4N3C2=S)cc1C(F)(F)F (configuration not stated) | > 200 | 58.2% | 26.9 | 4.49 | – |
| CNC(=O)c1cc2c(cc1F)N1C(=S)N(c3ccc(C#N)c(C(F)(F)F)c3)C(=O)C1C2 (configuration not stated) | > 200 | inactive | 58.2 | – | – |
| N#Cc1ccc(N2C(=O)C3Cc4cc(C(=O)NC5CCCCC5)c(F)cc4N3C2=S)cc1C(F)(F)F (configuration not stated) | 126 | 55.1% | 44.9 | – | – |
| N#Cc1ccc(N2C(=O)C3Cc4ccc(C(=O)NCCO)cc4N3C2=S)cc1C(F)(F)F (configuration not stated) | 175 | 37% | 25.8 | – | – |
| CCCNC(=O)c1cc2c(cc1F)N1C(=S)N(c3ccc(C#N)c(C(F)(F)F)c3)C(=O)C1C2 (configuration not stated) | > 200 | inactive | 11.2 | – | – |
| CC(C)CNC(=O)c1cc2c(cc1F)N1C(=S)N(c3ccc(C#N)c(C(F)(F)F)c3)C(=O)C1C2 (configuration not stated) | > 200 | inactive | 70.7 | – | – |
| N#Cc1ccc(N2C(=O)c3cc4ccccc4n3C2=S)cc1C(F)(F)F | 146 | 21.1% | 33.4 | – | – |
| C[C@]1(O)CC[C@H]2[C@@H]3CCC4=CC(=O)CCC4=C3C=C[C@@]21C | – | inactive | – | – | – |
| CCCCNC(=O)c1cc2c(cc1F)N1C(=S)N(c3ccc(C#N)c(C(F)(F)F)c3)C(=O)C1C2 (configuration not stated) | 175 | inactive | 67.3 | – | – |
| CCCCNC(=O)c1ccc2c(c1)N1C(=S)N(c3ccc(C#N)c(C(F)(F)F)c3)C(=O)C1C2 (configuration not stated) | 58 | inactive | 77.2 | – | – |
| N#Cc1ccc(N2C(=O)C3CC(O)CN3C2=S)cc1C(F)(F)F (configuration not stated) | > 200 | 1.9% | 52.6 | – | – |
| N#Cc1ccc(N2C(=O)C3Cc4ccccc4N3C2=S)cc1C(F)(F)F (configuration not stated) | 143 | – | 15.3 | – | – |
| N#Cc1ccc(N2C(=O)C3Cc4cc([N+](=O)[O-])ccc4N3C2=S)cc1C(F)(F)F (configuration not stated) | 78.4 | 21.8% | 64.7 | – | – |
| N#Cc1ccc(N2C(=O)C3Cc4ccc(Cl)cc4N3C2=S)cc1C(F)(F)F (configuration not stated) | > 200 | 71.9% | 27.9 | 2.33 | Active |
| CCNC(=O)c1cc2c(cc1F)N1C(=S)N(c3ccc(C#N)c(C(F)(F)F)c3)C(=O)C1C2 (configuration not stated) | 115 | inactive | 54.1 | – | – |
| N#Cc1ccc(N2C(=O)C3Cc4cc(Br)ccc4N3C2=S)cc1C(F)(F)F (configuration not stated) | > 200 | 57.1% | 83.7 | – | – |
| N#Cc1ccc(N2C(=O)C3CC4CCCCC4N3C2=S)cc1C(F)(F)F (configuration not stated) | 128 | 50.5% | 36.2 | – | – |
| CNC(=O)c1ccc2c(c1)N1C(=S)N(c3ccc(C#N)c(C(F)(F)F)c3)C(=O)C1C2 (configuration not stated) | > 200 | 13.1% | 144 | – | – |
| N#Cc1ccc(N2C(=O)C3Cc4ccc(N)cc4N3C2=S)cc1C(F)(F)F (configuration not stated) | 67 | 29% | 32.6 | – | – |
| N#Cc1ccc(N2C(=O)C3Cc4ccc(C(=O)NC5CCCCC5)cc4N3C2=S)cc1C(F)(F)F (configuration not stated) | 101 | 22.9% | 29.3 | – | – |
| N#Cc1ccc(N2C(=O)C3Cc4ccc(Br)cc4N3C2=S)cc1C(F)(F)F (configuration not stated) | > 200 | 68.3% | 30.4 | 2.98 | – |
